Test system: human cytomegalovirus (HCMV)
Assay: microbe, parasite or virus in culture
Format: cell-based
Conditions: Human MRCS cells, 0.01 IU per cell, virus yield at 7 days post infection, mCherry positive cells

Structure (SMILES)	IC50 (Human betaherpesvirus 5, 168 h)	IC50
CC(C)c1cc(Cc2cnc(N3CCc4ccc(-c5cn(C)nn5)cc4C3)s2)cc(-n2cccn2)c1 [Example 1]	11.7 µM	–
CS(=O)(=O)c1ccc(Cc2cnc(N3CCc4ccc(N5CCOC5=O)cc4C3)s2)cc1 [Example 43]	0.617 µM	–
Cc1cn(-c2ccc3c(c2)CN(c2ncc(Cc4cncc(-n5cccn5)c4)s2)CC3)c(C)n1 [Example 67]	1.19 µM	–
c1cc(Cc2cnc(N3CCc4ccc(-c5c[nH]nn5)cc4C3)s2)cc(-n2cccn2)c1 [Example 4]	0.758 µM	–
O=C1OCCN1c1ccc2c(c1)CN(c1ncc(Cc3ccc(-n4cccn4)cc3)s1)CC2 [Example 24]	0.353 µM	–
Cc1cn(-c2ccc3c(c2)CN(c2ncc(Cc4ccc(N5CCS(=O)(=O)CC5)cc4)s2)CC3)c(C)n1 [Example 48]	0.195 µM	–
COCCn1nncc1-c1ccc2c(c1)CN(c1ncc(Cc3cccc(-n4cccn4)c3)s1)CC2 [Example 8]	2.01 µM	–
CN1CCN(c2ccc3c(c2)CN(c2ncc(Cc4ccc(N5CCOC5=O)cc4)s2)CC3)C1=O [Example 57]	0.742 µM	–
CN1CCCN(c2ccc3c(c2)CN(c2ncc(Cc4ccc(C5CCOCC5)cc4)s2)CC3)C1=O [Example 59]	0.73 µM	–
c1cnc(-c2ccc(Cc3cnc(N4CCc5ccc(N6CCOCC6)cc5C4)s3)cc2)nc1 [Example 54]	1.09 µM	–
Cc1cn(-c2ccc3c(c2)CN(c2ncc(Cc4ccc(-n5cccn5)cc4)s2)CC3)c(C)n1 [Example 14]	0.453 µM	–
c1cnn(-c2ccc(Cc3cnc(N4CCc5ccc(-c6ncc[nH]6)cc5C4)s3)cc2)c1 [Example 20]	5.27 µM	–
O=C1CCCN1c1ccc2c(c1)CN(c1ncc(Cc3ccc(N4CCOCC4)cc3)s1)CC2 [Example 50]	0.613 µM	–
O=C1CCCN1c1ccc2c(c1)CN(c1ncc(Cc3ccc(N4CCS(=O)(=O)CC4)cc3)s1)CC2 [Example 51]	0.737 µM	–
O=C1NCCN1c1ccc2c(c1)CN(c1ncc(Cc3ccc(-n4cccn4)cc3)s1)CC2 [Example 25]	0.911 µM	–
Cc1cn(-c2ccc(Cc3cnc(N4CCc5ccc(N6CCOC6=O)cc5C4)s3)cc2)c(C)n1 [Example 44]	0.552 µM	–
Cn1cc(-c2ccc3c(c2)CN(c2ncc(Cc4cccc(-n5cccn5)c4)s2)CC3)nn1 [Example 3]	1.91 µM	–
O=C1OCCN1c1ccc2c(c1)CN(c1ncc(Cc3ccc(C4CCOCC4)cc3)s1)CC2 [Example 62]	0.362 µM	–
COCCn1cc(-c2ccc3c(c2)CN(c2ncc(Cc4ccc(-n5cccn5)cc4)s2)CC3)nn1 [Example 11]	1.7 µM	–
CN1CCN(c2ccc3c(c2)CN(c2ncc(Cc4ccc(-c5ncccn5)cc4)s2)CC3)C1=O [Example 52]	1.36 µM	–
O=C1OCCN1c1ccc2c(c1)CN(c1ncc(Cc3cccc(N4CCOCC4)c3)s1)CC2 [Example 35]	0.891 µM	–
O=C1OCCN1c1ccc2c(c1)CN(c1ncc(Cc3cccc(-n4cccn4)c3)s1)CC2 [Example 28]	1.89 µM	–
c1cnn(-c2ccc(Cc3cnc(N4CCc5ccc(-c6c[nH]nn6)cc5C4)s3)cc2)c1 [Example 5]	0.807 µM	–

Structure (SMILES)	IC50 (Human betaherpesvirus 5, 168 h)	IC50
O=C1OCCN1c1cccc(Cc2cnc(N3CCc4ccc(N5CCOC5=O)cc4C3)s2)c1 [Example 40]	0.956 µM	–
COc1ccc(Cc2cnc(N3CCc4ccc(-n5cc(C)nc5C)cc4C3)s2)cc1-n1cccn1 [Example 22]	0.306 µM	–
Cc1cn(-c2ccc3c(c2)CN(c2nc(Cc4cccc(-n5cccn5)c4)cs2)CC3)c(C)n1 [Example 66]	4.48 µM	–
c1cnn(-c2ccc(Cc3cnc(N4CCc5ccc(N6CCOCC6)cc5C4)s3)cc2)c1 [Example 72]	0.537 µM	–
COCCn1nncc1-c1ccc2c(c1)CN(c1ncc(Cc3ccc(-n4cccn4)cc3)s1)CC2 [Example 7]	1.7 µM	–
CS(=O)(=O)c1cccc(Cc2cnc(N3CCc4ccc(N5CCOC5=O)cc4C3)s2)c1 [Example 34]	0.633 µM	–
O=C1OCCN1c1ccc2c(c1)CN(c1ncc(Cc3ccc(N4CCOCC4)cc3)s1)CC2 [Example 31]	0.803 µM	–
Cc1cn(-c2ccc(Cc3cnc(N4CCc5ccc(-n6cc(C)nc6C)cc5C4)s3)cc2)c(C)n1 [Example 23]	0.707 µM	–
O=C1CCCN1c1ccc2c(c1)CN(c1ncc(Cc3ccc(-n4cccn4)cc3)s1)CC2 [Example 73]	0.423 µM	–
Cc1cn(-c2ccc3c(c2)CN(c2ncc(Cc4ccc(N5CCOC5=O)cc4)s2)CC3)c(C)n1 [Example 56]	0.317 µM	–
CN1CCCN(c2ccc3c(c2)CN(c2ncc(Cc4ccc(-n5cccn5)cc4)s2)CC3)C1=O [Example 38]	3.49 µM	–
O=C1OCCN1c1ccc2c(c1)CN(c1ncc(Cc3cccc(N4CCS(=O)(=O)CC4)c3)s1)CC2 [Example 33]	0.903 µM	–
COCCN1CCCN(c2ccc3c(c2)CN(c2ncc(Cc4ccc(-n5cccn5)cc4)s2)CC3)C1=O [Example 45]	1.78 µM	–
c1cnn(-c2ccc(Cc3cnc(N4CCc5cc(-n6ccnc6)ccc5C4)s3)cc2)c1 [Example 18]	–	1.08 µM
O=C1COCCN1c1ccc2c(c1)CN(c1ncc(Cc3ccc(-n4cccn4)cc3)s1)CC2 [Example 42]	2.47 µM	–
CN1CCCN(c2ccc3c(c2)CN(c2ncc(Cc4ccc(S(C)(=O)=O)cc4)s2)CC3)C1=O [Example 61]	4.71 µM	–
O=C1CN(c2ccc3c(c2)CN(c2ncc(Cc4ccc(-n5cccn5)cc4)s2)CC3)CCN1 [Example 71]	10 µM	–
O=C1NCCN1c1ccc2c(c1)CN(c1ncc(Cc3ccc(-c4ncccn4)cc3)s1)CC2 [Example 53]	> 4.17 µM	–
Cc1nc(-c2ccc3c(c2)CN(c2ncc(Cc4ccc(-n5cccn5)cc4)s2)CC3)no1 [Example 6]	3.37 µM	–
O=C1OCCN1c1ccc(Cc2cnc(N3CCc4ccc(N5CCOC5=O)cc4C3)s2)cc1 [Example 32]	0.979 µM	–
c1cnn(-c2ccc(Cc3cnc(N4CCc5ccc(-c6nc[nH]n6)cc5C4)s3)cc2)c1 [Example 16]	0.2 µM	–
O=C1CCCN1c1ccc2c(c1)CN(c1ncc(Cc3ccc(-c4ncccn4)cc3)s1)CC2 [Example 49]	0.516 µM	–
Cc1cn(-c2ccc3c(c2)CN(c2ncc(Cc4cccc(-n5cccn5)c4)s2)CC3)c(C)n1 [Example 19]	1.3 µM	–

Structure (SMILES)	IC50 (Human betaherpesvirus 5, 168 h)	IC50
Cc1cnc(C)n1-c1ccc2c(c1)CN(c1ncc(Cc3ccc(N4CCOCC4)cc3)s1)CC2 [Example 47]	0.796 µM	–
O=C1OCCN1c1ccc2c(c1)CN(c1ncc(Cc3ccc(-c4ncccn4)cc3)s1)CC2 [Example 29]	0.858 µM	–
O=C1OCCN1c1ccc2c(c1)CN(c1ncc(Cc3ccc(-n4cccn4)nc3)s1)CC2 [Example 41]	0.553 µM	–
c1cn(-c2ccc(Cc3cnc(N4CCc5ccc(-n6ccnc6)cc5C4)s3)cc2)cn1 [Example 17]	0.748 µM	–
Cc1cn(-c2ccc3c(c2)CN(c2ncc(Cc4ccc(-n5cccn5)cc4)s2)CC3)cn1 [Example 13]	1.06 µM	–
Cc1cn(-c2ccc3c(c2)CN(c2ncc(Cc4ccc(N5CCOCC5)cc4)s2)CC3)c(C)n1 [Example 46]	0.605 µM	–
O=C1OCCN1c1ccc(Cc2cnc(N3CCc4ccc(N5CCOCC5)cc4C3)s2)cc1 [Example 58]	1.13 µM	–
COc1cc(Cc2cnc(N3CCc4ccc(-n5cc(C)nc5C)cc4C3)s2)ccc1-n1cccn1 [Example 27]	0.345 µM	–
O=C1OCCN1c1ccc2c(c1)CN(c1ncc(Cc3cncc(-n4cccn4)c3)s1)CC2 [Example 55]	3.83 µM	–
CN1CCN(c2ccc3c(c2)CN(c2ncc(Cc4ccc(-n5cccn5)cc4)s2)CC3)C1=O [Example 26]	0.637 µM	–
CN1CCN(c2ccc3c(c2)CN(c2ncc(Cc4ccc(-n5cccn5)cc4)s2)CC3)CC1=O [Example 70]	2.14 µM	–
Cn1cc(-c2ccc3c(c2)CN(c2ncc(Cc4ccc(-n5cccn5)cc4)s2)CC3)nn1 [Example 2]	1.17 µM	–
O=C1OCCCN1c1ccc2c(c1)CN(c1ncc(Cc3ccc(-n4cccn4)cc3)s1)CC2 [Example 69]	4.9 µM	–
CN1CCCN(c2ccc3c(c2)CN(c2ncc(Cc4ccc(N5CCOCC5)cc4)s2)CC3)C1=O [Example 60]	9.84 µM	–
Cc1cn(-c2ccc3c(c2)CN(c2ncc(Cc4cccc(-n5cccn5)c4)s2)CC3)cn1 [Example 21]	2.62 µM	–
COCCn1cc(-c2ccc3c(c2)CN(c2ncc(Cc4cccc(-n5cccn5)c4)s2)CC3)nn1 [Example 12]	5.98 µM	–
N#Cc1ccc(Cc2cnc(N3CCc4ccc(N5CCOC5=O)cc4C3)s2)cc1 [Example 30]	4.42 µM	–
c1cc(Cc2cnc(N3CCc4ccc(-c5nc[nH]n5)cc4C3)s2)cc(-n2cccn2)c1 [Example 15]	1.85 µM	–
N#Cc1cccc(Cc2cnc(N3CCc4ccc(N5CCOC5=O)cc4C3)s2)c1 [Example 39]	2.75 µM	–
O=C1OCCN1c1ccc2c(c1)CN(c1ncc(Cc3ccc(N4CCS(=O)(=O)CC4)cc3)s1)CC2 [Example 36]	0.666 µM	–
O=C1NCCCN1c1ccc2c(c1)CN(c1ncc(Cc3ccc(-n4cccn4)cc3)s1)CC2 [Example 37]	9.96 µM	–
c1cnn(-c2ccc(Cc3cnc(N4CCc5ccc(-n6ccnc6)cc5C4)s3)cc2)c1 [Example 9]	0.479 µM	–

Reference: patent US11459321B2, “Broad spectrum antiviral compositions and methods” (priority 2017, dated 2022)
